Measured values published in US20240327372A1, “PREPARATION OF PHENE[…] […] STEREOISOMERS THEREOF AND PRECURSORS THEREOF” (priority 2022, published 2024).
Where two headings read alike, the source gives them in different places.

Key:
PTSD = conditions: clinical case series of 21 individuals; cited from earlier work
mouse model of PTSD = assay: Fear extinction in a mouse model of PTSD; format: in vivo; conditions: 30 mg/kg IP
Experimental: FIGS. 1A-1D: Methylone improves fear extinction recall in a mouse model of PTSD. (FIG. 1A) Schematic of experimental design. A single CS-US (tone-shock) pairing on day 1 was followed by 6 CS presentations in a novel context (context B). Methylone or saline vehicle was injected 30 min prior to extinction training on day 2. On day 3, the time spent freezing to the CS was quantified. […] (FIG. 1C) The time freezing before vs. during each of 6 cues on day 3 (to control for locomotor effects) are shown. There was a significant cue x drug interaction (F(5, 130)=2.409, p<0.05). […] N=12 for methylone group (30 mg/kg, IP, orange diamonds) and N=16 for saline control group (black squares). *p<0.05
Effective PTSD treatments facilitate the disassociation between a traumatic memory and the patient's fear response, making cues for the traumatic memory evoke less of a fear response. This is modeled in the mouse fear extinction paradigm which takes place over 3 days. On day 1 (fear conditioning), mice are trained to acquire a “traumatic memory,” namely associating the conditioned stimulus (CS, tone) to the unconditioned stimulus (US, foot shock). […] On day 3 (extinction recall), the mice are “asked” if that tone (CS) still elicits a fearful response, as measured by the time spent freezing when the tone is presented. […]

[1] = system: rat forced swim test (FST); assay: Rat forced swim test (FST); format: in vivo
Experimental: All FST studies are performed and scored by an experimenter blind to treatment group and according to standard protocols. Briefly, rats are placed in a circular plexiglass container filled with water. Water temperature is maintained at 22-25° C. and changed for every animal. Day 1 (Training) consists of a 15 min acclimation trial, and Day 2 (Testing, 24 h later) consists of the 5 min test. A time sampling procedure is employed where animals are observed every 5 seconds for the duration of the test session (60 counts or 5 minutes) and scored for immobility (defined as the failure to struggle), swimming (defined as a circular movement around the tank), or climbing (defined as an upwards escape behavior). Data are expressed as the percent of the testing session (e.g., the number of immobility counts divided by 60). A p-value less than 0.05 indicates statistical significance after typical statistical analyses (e.g., unpaired t-test or ANOVA).
To determine that the prodrug and/or enantiomer has an antidepressant-like effect and to compare it to methylone, rats are treated with each compound 30 min prior to testing. Additional tests are run 24, 72, 168 hours post-dose or longer.
Racemic methylone (10 mg/kg, IP) has a maximal antidepressant-like effect in the rat forced swim test (FST), reducing immobility by nearly 100% compared to vehicle treated controls. To determine whether one enantiomer of methylone could mimic the robust antidepressant-like effect of racemic methylone, rats were treated with a single dose of racemic methylone, (R)-methylone, (S)-methylone (all 10 mg/kg, IP) or vehicle 30 min before testing in the FST. […] Therefore, all of the activity of methylone appears to be driven by the activity of one enantiomer ((S)-methylone).

[2] = self-administration, healthy volunteers; cited from earlier work
[3] = Pharmacokinetics of methylone after single IV, PO or IP administration, plasma LC-MS/MS; format: in vivo, male Sprague Dawley rats; conditions: for MRT last: read-out: MRT0-last; for Cmax: rat plasma
Experimental: The pharmacokinetic properties of methylone after a single administration intravenously (IV), intraperitoneally (IP), or by oral gavage (PO) in male Sprague Dawley rats has been determined using a liquid chromatography tandem mass spectrometry (LC-MS/MS) method that has been established and validated for methylone in the rat. Rats (n=3 per group) received a single dose of methylone: 5 mg/kg IV, 15 mg/kg IP, or 15 mg/kg PO.
To investigate whether the prodrug extends the half-life or alters other basic pharmacokinetic properties of methylone (e.g., Cmax or Tmax), rats are treated with each prodrug IV, IP, or PO. For each compound, three groups of rats are treated as follows: For group 1, a single dose of methylone is administered to 3 male Sprague-Dawley rats by IV bolus at 5 mg/kg. For group 2, a single dose of methylone is administered to 3 male Sprague-Dawley rats by oral gavage (PO) at 15 mg/kg. For group 3, a single dose of methylone is administered to 3 male Sprague-Dawley rats by IP at 15 mg/kg. For all groups, blood samples are collected from each animal at 0.083, 0.25, 0.5, 1, 2, 4, 8, 12, and 24 hours post-dose for the determination of plasma concentrations. The plasma concentrations are quantified by liquid chromatography tandem mass spectrometry (LC-MS/MS). The bioanalytical assay has been established and validated, providing a lower limit of quantification (LLOQ) of 1 ng/mL and an upper limit of quantification (ULOQ) of 3000 ng/mL for methylone. The plasma concentration-time data are analyzed using Phoenix WinNonlin (version 8.3) to characterize the PK properties of the analyte. The non-compartmental analysis model and the linear/log trapezoidal method are applied to calculating the PK parameters.

open field test = conditions: 5, 10, 20 mg/kg, SC; Štefková et al. 2017; cited from earlier work
[4] = rat; Elmore et al. 2017; cited from earlier work
[5] = male, Sprague Dawley, rat, plasma, IP 15 mg/kg
[6] = male, Sprague Dawley, rat, plasma, IV 5 mg/kg
[7] = male, Sprague Dawley, rat, plasma, PO 15 mg/kg

## CNC(C)C(=O)c1ccc2c(c1)OCO2 (stereo not shown) [Methylone, 3,4-methylenedioxy-N-methylacthinone]
PTSD
  Patients with improved PTSD symptoms: 81%
Mouse model of PTSD; 30 min prior to extinction training
  Enhancement of fear extinction recall compared to saline controls: ~60%
Mouse model of PTSD; p<0.05
  Freezing time during the first cue on day 3 (extinction recall) compared to saline: significantly reduced
[1]; single dose 5 mg/kg
  Reduction of immobility compared to vehicle-treated controls: approximately 50%
[1]; single dose 15 mg/kg
  Reduction of immobility compared to vehicle-treated controls: ~100%
[2]
  Heart rate: increase in heart rate
  Systolic and diastolic blood pressure: significant increase
[3]; IP 15 mg/kg
  Tmax: 0.250 ± 0.000 h
[3]; [5]
  AUC(0-t): 4300 ± 1180 ng·h/mL
  half-life: 0.8 ± 0.169 h
  MRT last: 1.07 ± 0.211 h
[3]; [6]
  AUC(0-t): 1200 ± 88.2 ng·h/mL
  C0: 3020 ± 666 ng/mL
  clearance: 68.3 ± 5.4 mL/min/kg
  half-life: 0.362 ± 0.024 h
  MRT last: 0.439 ± 0.026 h
[3]; male, Sprague Dawley, rat, plasma, IV 5 mg/kg, read-out: Vdss
  Vd: 1.98 ± 0.23 L/kg
[3]; [7]
  AUC(0-t): 2760 ± 657 ng·h/mL
  half-life: 3.23 ± 1.99 h
  MRT last: 2.99 ± 0.467 h
[3]; male, Sprague Dawley, rat, plasma, PO 15 mg/kg, read-out: Tmax
  Tmax: 1.33 ± 0.577 h
[3]; male, Sprague Dawley, IP 15 mg/kg
  Cmax: 4230 ± 514 ng/mL
[3]; male, Sprague Dawley, PO 15 mg/kg
  Cmax: 678 ± 243 ng/mL
Open field test
  Thigmotaxis (time spent hugging the perimeter of the open field): reduce thigmotaxis
[4]
  t1/2: 1 h
